Test results: US20210386367A1, “DEVICES AND SYSTEMS FOR GASTROINTESTINAL MICROBIOME DETECTION AND MANIPULATION” (Progenity, Inc., priority 2018, published 2021)
≈ marks a conversion by molar mass, not a printed value. Read-outs that look alike come from different tables or passages of the source.

Tests used:
Type in all cases: cell-based
Enterobacter aerogenes = test: Broth microdilution MIC, 50 clinical isolates
Summary of the method: (§1)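 CLSI broth microdilution in cation-adjusted Mueller Hinton broth, with 3% lysed horse blood added for streptococci, which were incubated with CO2.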

Proteus mirabilis = test: Broth microdilution MIC, 50 clinical isolates
Summary of the method: as §1

Pseudomonas aeruginosa = test: Broth microdilution MIC, 50 clinical isolates
Summary of the method: as §1

Klebsiella spp. = test: Broth microdilution MIC, 50 clinical isolates (20 K. oxytoca, 30 K. pneumoniae)
Procedure: Minimal inhibitory concentration (MIC) values were determined by broth microdilution or agar dilution in accordance with guidelines from the Clinical and Laboratory Standards Institute (CLSI; (1) “Methods for Dilution Antimicrobial Susceptibility Tests for Bacteria That Grow Aerobically; Approved Standard; 11th ed.” CLSI standard M07-A11, 2018; (2) “Performance Standards for Antimicrobial Susceptibility Testing; Twenty-Eighth Informational Supplement,” CLSI document M100-S28, 2018; and (3) “Methods for Antimicrobial Susceptibility Testing of Anaerobic Bacteria; Approved Standard—Eighth Edition,” CLSI document M11-A8, 2012).
Tested aerobically by broth microdilution: • Escherichia coli, n=50 • Klebsiella spp., n=50 • Pseudomonas aeruginosa, n=50 • Streptococcus spp., n=50 • Staphylococcus aureus, n=50 • Enterococcus faecalis, n=50 • Enterobacter aerogenes, n=50 • Proteus mirabilis, n=50
Broth microdilution testing of aerobic bacteria was conducted in cation-adjusted Mueller Hinton broth (MHBII). For testing streptococci, lysed horse blood (LHB) was added to MHBII broth at a final concentration of 3%. Where LHB was used, it was added after filtering.
Broth microdilution susceptibility testing in 96-well microplates was conducted in accordance with CLSI methods (1) and (2). Automated liquid handlers were used to conduct serial dilutions and liquid transfers, including the Multidrop 384 (Labsystems, Helsinki, Finland), Biomek 2000, and the Biomek FX (Beckman Coulter, Fullerton, Calif.). All wells in columns 2 through 12 of a standard 96-well microdilution plate (Costar 3795) were filled with 150 μL of the appropriate diluent. Then, 300 μL of the test agents were added to the wells of column 1 of the plates at 100× the highest final concentration to be tested. Serial two-fold dilutions were made across the rows through column 11 using the Biomek 2000. The wells of column 12 contained no drug and served as the growth control wells. This plate served as the “mother plate” from which MIC assay plates or “daughter plates” were made.
The daughter plates were loaded with 190 μL per well of the appropriate medium using the Multidrop 384. The daughter plates were created using the Biomek FX which transferred 2 μL of drug solution from each well of a mother plate to each corresponding well of the daughter plate in a single step. A standardized inoculum of each test organism was prepared per CLSI methods (1) to equal a 0.5 McFarland standard, followed by a dilution of 1:20 for aerobes and 1:10 for anaerobes. The plates were then inoculated with 10 μL of the diluted inoculum using the Biomek 2000 from low to high drug concentration, resulting in a final concentration of approximately 5×10^5 CFU/mL per well. An un-inoculated plate was incubated in parallel for each medium for the purpose of assessing solubility of the drug in the test media.
Inoculated plates were stacked 3 or 4 high, covered with a sterile lid on the top plate, placed into boxes with CO2 planchets (streptococci) or plastic bags (all other isolates). Plates were incubated at 35° C. for 16-24 hr in ambient air for aerobes or for 42-48 hr in the anaerobic environment of the Bactron II anaerobe chamber (Sheldon Manufacturing Co.; Cornelius, Oreg.). Following incubation, the microplates were removed from the incubator and viewed from the bottom using a plate viewer. The MIC values were read and recorded as the lowest concentration of drug that inhibited visible growth of the organism as per CLSI methods (1) and (2).

Veillonella spp. = test: Agar dilution MIC, 30 clinical isolates
[1] = test system: Bacteroides spp. (B. fragilis ATCC 25285, B. vulgatus, B. ovatus MMX 3503); test: Agar dilution MIC (spontaneous mutation study; strain in conditions)
[2] = 30 Veillonella spp. clinical isolates

CO/N=C(\C(=O)N[C@@H]1C(=O)N2C(C(=O)O)=C(CSc3nc(=O)c(=O)[nH]n3C)CS[C@H]12)c1csc(N)n1 [ceftriaxone]
% R (Enterobacter aerogenes): 26% | % S (Enterobacter aerogenes): 74% | MIC range (Enterobacter aerogenes): 0.03 to 64 µg/mL | Mode (Enterobacter aerogenes): 0.06 µg/mL | Cumulative percentage of isolates inhibited at MIC (Enterobacter aerogenes; 0.03 μg/mL): 6.0% | Number of test isolates at MIC (Enterobacter aerogenes; 0.03 μg/mL): 3 | Cumulative percentage of isolates inhibited at MIC (Enterobacter aerogenes; 0.06 μg/mL): 42.0% | Number of test isolates at MIC (Enterobacter aerogenes; 0.06 μg/mL): 18 | Cumulative percentage of isolates inhibited at MIC (Enterobacter aerogenes; 1 μg/mL): 74.0% | Number of test isolates at MIC (Enterobacter aerogenes; 1 μg/mL): 2 | Cumulative percentage of isolates inhibited at MIC (Enterobacter aerogenes; 8 μg/mL): 78.0% | Number of test isolates at MIC (Enterobacter aerogenes; 8 μg/mL): 2 | Cumulative percentage of isolates inhibited at MIC (Enterobacter aerogenes; 16 μg/mL): 86.0% | Number of test isolates at MIC (Enterobacter aerogenes; 16 μg/mL): 4 | Cumulative percentage of isolates inhibited at MIC (Enterobacter aerogenes; 32 μg/mL): 94.0% | Number of test isolates at MIC (Enterobacter aerogenes; 32 μg/mL): 4 | Cumulative percentage of isolates inhibited at MIC (Enterobacter aerogenes; 64 μg/mL): 100.0% | Number of test isolates at MIC (Enterobacter aerogenes; 64 μg/mL): 3 | MIC50 (Enterobacter aerogenes; Klebsiella aerogenes, read-out: MIC50): 0.12 µg/mL (≈ 0.216 µM) | MIC90 (Enterobacter aerogenes; Klebsiella aerogenes, read-out: MIC90): 32 µg/mL (≈ 57.7 µM) | % R (Enterobacter aerogenes; listed as CTR): 26% | % R (Proteus mirabilis): Six | % S (Proteus mirabilis): 94% | Mode (Proteus mirabilis): 0.004 µg/mL | Cumulative percentage of isolates inhibited at MIC (Proteus mirabilis; 0.004 μg/mL): 62.0% | Number of test isolates at MIC (Proteus mirabilis; 0.004 μg/mL): 21 | Cumulative percentage of isolates inhibited at MIC (Proteus mirabilis; 0.008 μg/mL): 84.0% | Number of test isolates at MIC (Proteus mirabilis; 0.008 μg/mL): 11 | Cumulative percentage of isolates inhibited at MIC (Proteus mirabilis; 0.015 μg/mL): 86.0% | Number of test isolates at MIC (Proteus mirabilis; 0.015 μg/mL): 1 | Cumulative percentage of isolates inhibited at MIC (Proteus mirabilis; 0.03 μg/mL): 88.0% | Number of test isolates at MIC (Proteus mirabilis; 0.03 μg/mL): 1 | Cumulative percentage of isolates inhibited at MIC (Proteus mirabilis; 0.06 μg/mL): 92.0% | Number of test isolates at MIC (Proteus mirabilis; 0.06 μg/mL): 2 | Cumulative percentage of isolates inhibited at MIC (Proteus mirabilis; 1 μg/mL): 94.0% | Number of test isolates at MIC (Proteus mirabilis; 1 μg/mL): 1 | Cumulative percentage of isolates inhibited at MIC (Proteus mirabilis; 4 μg/mL): 96.0% | Number of test isolates at MIC (Proteus mirabilis; 4 μg/mL): 1 | Cumulative percentage of isolates inhibited at MIC (Proteus mirabilis; 8 μg/mL): 98.0% | Number of test isolates at MIC (Proteus mirabilis; 8 μg/mL): 1 | Cumulative percentage of isolates inhibited at MIC (Proteus mirabilis; >128 μg/mL): 100.0% | Number of test isolates at MIC (Proteus mirabilis; >128 μg/mL): 1 | MIC50 (Proteus mirabilis; Proteus mirabilis, read-out: MIC50): 0.004 µg/mL (≈ 0.00721 µM) | MIC90 (Proteus mirabilis; Proteus mirabilis, read-out: MIC90): 0.06 µg/mL (≈ 0.108 µM) | % R (Proteus mirabilis; listed as CTR): 6%^ | Cumulative percentage of isolates inhibited at MIC (Proteus mirabilis; ≤0.002 μg/mL): 20.0% | Number of test isolates at MIC (Proteus mirabilis; ≤0.002 μg/mL): 10 | Cumulative percentage of isolates inhibited at MIC (Pseudomonas aeruginosa; 4 μg/mL): 2.0% | Number of test isolates at MIC (Pseudomonas aeruginosa; 4 μg/mL): 1 | Cumulative percentage of isolates inhibited at MIC (Pseudomonas aeruginosa; 8 μg/mL): 10.0% | Number of test isolates at MIC (Pseudomonas aeruginosa; 8 μg/mL): 4 | Cumulative percentage of isolates inhibited at MIC (Pseudomonas aeruginosa; 16 μg/mL): 16.0% | Number of test isolates at MIC (Pseudomonas aeruginosa; 16 μg/mL): 3 | Cumulative percentage of isolates inhibited at MIC (Pseudomonas aeruginosa; 32 μg/mL): 36.0% | Number of test isolates at MIC (Pseudomonas aeruginosa; 32 μg/mL): 10 | Cumulative percentage of isolates inhibited at MIC (Pseudomonas aeruginosa; 64 μg/mL): 58.0% | Number of test isolates at MIC (Pseudomonas aeruginosa; 64 μg/mL): 11 | Cumulative percentage of isolates inhibited at MIC (Pseudomonas aeruginosa; 128 μg/mL): 72.0% | Number of test isolates at MIC (Pseudomonas aeruginosa; 128 μg/mL): 7 | Cumulative percentage of isolates inhibited at MIC (Pseudomonas aeruginosa; >128 μg/mL): 100.0% | Number of test isolates at MIC (Pseudomonas aeruginosa; >128 μg/mL): 14 | MIC50 (Pseudomonas aeruginosa; Pseudomonas aeruginosa, read-out: MIC50): 64 µg/mL (≈ 115 µM) | MIC90 (Pseudomonas aeruginosa; Pseudomonas aeruginosa, read-out: MIC90): > 128 µg/mL | MIC90 (Pseudomonas aeruginosa; listed as CTR): >128 µg/mL | % I (Klebsiella spp.): 6% | % R (Klebsiella spp.): 28% | % S (Klebsiella spp.): 66% | Mode (Klebsiella spp.): 0.06 µg/mL | Cumulative percentage of isolates at MIC (Klebsiella spp.; 0.015 μg/mL): 2.0% | Number of test isolates at MIC (Klebsiella spp.; 0.015 μg/mL): 1 | Cumulative percentage of isolates at MIC (Klebsiella spp.; 0.03 μg/mL): 12.0% | Number of test isolates at MIC (Klebsiella spp.; 0.03 μg/mL): 5 | Cumulative percentage of isolates at MIC (Klebsiella spp.; 0.06 μg/mL): 14.0% | Number of test isolates at MIC (Klebsiella spp.; 0.06 μg/mL): 16 | Cumulative percentage of isolates at MIC (Klebsiella spp.; 0.5 μg/mL): 64.0% | Number of test isolates at MIC (Klebsiella spp.; 0.5 μg/mL): 1 | Cumulative percentage of isolates at MIC (Klebsiella spp.; 1 μg/mL): 66.0% | Number of test isolates at MIC (Klebsiella spp.; 1 μg/mL): 1 | Cumulative percentage of isolates at MIC (Klebsiella spp.; 2 μg/mL): 72.0% | Number of test isolates at MIC (Klebsiella spp.; 2 μg/mL): 3 | Cumulative percentage of isolates at MIC (Klebsiella spp.; 8 μg/mL): 76.0% | Number of test isolates at MIC (Klebsiella spp.; 8 μg/mL): 2 | Cumulative percentage of isolates at MIC (Klebsiella spp.; 32 μg/mL): 80.0% | Number of test isolates at MIC (Klebsiella spp.; 32 μg/mL): 2 | Cumulative percentage of isolates at MIC (Klebsiella spp.; >128 μg/mL): 100.0% | Number of test isolates at MIC (Klebsiella spp.; >128 μg/mL): 10 | MIC90 (Klebsiella spp.; Klebsiella): > 128 µg/mL | MIC50 (Klebsiella spp.; Klebsiella, read-out: MIC50): 0.12 µg/mL (≈ 0.216 µM) | % I (Klebsiella spp.; listed as CTR): 6% | % R (Klebsiella spp.; listed as CTR): 28% | MIC90 (Klebsiella spp.; listed as CTR): >128 µg/mL | isolates resistant (Veillonella spp.): 3% | isolates with intermediate resistance (Veillonella spp.): 10% | % I (Veillonella spp.; [2]): 10% | % R (Veillonella spp.; [2]): 3% | % S (Veillonella spp.; [2]): 87% | MIC50 (Veillonella spp.; [2]): 16 µg/mL (≈ 28.9 µM) | MIC90 (Veillonella spp.; [2]): 32 µg/mL (≈ 57.7 µM) | MIC50 (Veillonella spp.; Veillonella, read-out: MIC50): 16 µg/mL (≈ 28.9 µM) | MIC90 (Veillonella spp.; Veillonella, read-out: MIC90): 32 µg/mL (≈ 57.7 µM) | Mode (Veillonella spp.; modal MIC, 30 Veillonella spp. clinical isolates): 16 µg/mL | MIC ([1]; B. fragilis and B. ovatus isolates, read-out: initial MIC values (agar dilution)): 128 µg/mL (≈ 231 µM) | MIC ([1]; Bacteroides fragilis, ATCC25285, read-out: Agar MIC): 128 µg/mL (≈ 231 µM) | MIC ([1]; Bacteroides ovatus, ATCC25285, read-out: Agar MIC): 128 µg/mL (≈ 231 µM) | MIC ([1]; Phocaeicola vulgatus, ATCC 25285 / ATCC 8482, read-out: Agar MIC): 4 µg/mL (≈ 7.21 µM) | MIC ([1]; over evaluated Bacteroides spp., read-out: MIC values (agar dilution)): 4 to 128 µg/mL (≈ 7.21 to 231 µM)
